# Measured values taken from paper PMC11555526, “Development of 2-Aminoadenine-Based Proteolysis-Targeting Chimeras (PROTACs) as Novel Potent Degraders of Monopolar Spindle 1 and Aurora Kinases” (ACS Pharmacology & Translational Science, 2024).
# pEC50: −log10 of the molar value. Values joined by “and” are separate entries in the source; they are usually repeats but may differ in a detail not shown here. Equal values may be shown once. Read-outs that look alike come from different tables or passages of the source.
# Key:
# [1] = molecular target: T1, AURKB (MV4-11^AURKB-HiBiT cells) (Homo sapiens, UniProt Q96GD4); assay: HiBiT assay, AURKB degradation; format: cell-based; design: key to Dmax (maximal degradation) AURKB: compounds with degradation less than 15% reported as “inactive”; conditions: 6 h treatment; for DC50: read-out: DC50 (half-maximal degradation concentration) AURKB
# T1 construct: expressed in transfected cells; host or cells: MV4-11, lentiviral transduction (pRRL-PGK vector)
# Description: (§1) The effects of the synthesized compounds on AURKA, AURKB, and TTK mitotic kinases were then assessed in cellular systems. For this, HiBiT cell lines were generated for all three mitotic kinases. A small 11 amino acid peptide fragment of luciferase (HiBiT) was fused to the coding sequence of the proteins and stably transduced in the MV4-11 cell line (MV4-11^AURKA-HiBiT, MV4-11^AURKB-HiBiT, and MV4-11^HiBiT-TTK).
# (§2) The stable cell lines MV4-11^AURKA-HiBiT, MV4-11^AURKB-HiBiT, and MV4-11^HiBiT-TTK cells were generated by lentiviral infection. Lentivirus was produced using the respective HiBiT vector, plasmids psPAX2, and pMD2.G in HEK293 cells. The virus supernatant was filtered and MV4-11 cells were doubly infected with the supernatant. The cells were selected after 48 h of infection until the control cells were dead to get the stable cell line.
# (§3) The cells stably expressing HiBiT-tagged protein were seeded into 96-well plates and treated with serial dilutions of compounds for the indicated time points. At the end point, the assay was performed using the Nano-Glo HiBiT Lytic Detection System (Promega) according to the manufacturer’s instruction. Luminescence was measured on a GloMax 96 Microplate Luminometer (Promega) or a Tecan Spark Multiplate reader (Tecan). DC50 was calculated using concentrations showing sigmoidal behavior with the dose–response (four parameters) equation in Prism (GraphPad).
# [2] = test system: MV4-11 cells (naive); assay: alamarBlue cell viability assay; format: cell-based, human
# Description: Finally, to study the effect of the compounds on cancer cell survival, MV4-11 cells were treated with various concentrations of the chimeras and the cell viability was assessed after 72 h. […] As opposed to the parent inhibitor MPS1-IN-3, its derivatives except 40 were not cytotoxic (Figure S7B, Table 5). […] In addition, most of the SF1-based derivatives affected the viability of MV4-11 cells in nanomolar concentrations (Table 5).
# For the alamarBlue cell viability assay, cells were seeded in 96-well plates and treated with indicated concentrations of the compounds or vehicle. A few hours before the experimental end point (72 h, unless otherwise stated), the cells were incubated with the alamarBlue reagent. Finally, fluorescence (excitation: 550 nm and emission: 600 nm) or absorbance (570 nm with reference at 600 nm) was measured on a Tecan Spark Multiplate reader (Tecan).
# [3] = molecular target: T2, TTK (MV4-11^HiBiT-TTK cells) (Homo sapiens, UniProt P33981); assay: HiBiT assay, TTK degradation; format: cell-based; design: key to Dmax (maximal degradation) TTK: compounds with degradation less than 15% reported as “inactive”; conditions: for DC50: read-out: DC50 (half-maximal degradation concentration) TTK
# T2 construct: expressed in transfected cells; host or cells: MV4-11, lentiviral transduction (pRRL-PGK-HiBiT entry vector)
# T2 sequence (P33981 1-857): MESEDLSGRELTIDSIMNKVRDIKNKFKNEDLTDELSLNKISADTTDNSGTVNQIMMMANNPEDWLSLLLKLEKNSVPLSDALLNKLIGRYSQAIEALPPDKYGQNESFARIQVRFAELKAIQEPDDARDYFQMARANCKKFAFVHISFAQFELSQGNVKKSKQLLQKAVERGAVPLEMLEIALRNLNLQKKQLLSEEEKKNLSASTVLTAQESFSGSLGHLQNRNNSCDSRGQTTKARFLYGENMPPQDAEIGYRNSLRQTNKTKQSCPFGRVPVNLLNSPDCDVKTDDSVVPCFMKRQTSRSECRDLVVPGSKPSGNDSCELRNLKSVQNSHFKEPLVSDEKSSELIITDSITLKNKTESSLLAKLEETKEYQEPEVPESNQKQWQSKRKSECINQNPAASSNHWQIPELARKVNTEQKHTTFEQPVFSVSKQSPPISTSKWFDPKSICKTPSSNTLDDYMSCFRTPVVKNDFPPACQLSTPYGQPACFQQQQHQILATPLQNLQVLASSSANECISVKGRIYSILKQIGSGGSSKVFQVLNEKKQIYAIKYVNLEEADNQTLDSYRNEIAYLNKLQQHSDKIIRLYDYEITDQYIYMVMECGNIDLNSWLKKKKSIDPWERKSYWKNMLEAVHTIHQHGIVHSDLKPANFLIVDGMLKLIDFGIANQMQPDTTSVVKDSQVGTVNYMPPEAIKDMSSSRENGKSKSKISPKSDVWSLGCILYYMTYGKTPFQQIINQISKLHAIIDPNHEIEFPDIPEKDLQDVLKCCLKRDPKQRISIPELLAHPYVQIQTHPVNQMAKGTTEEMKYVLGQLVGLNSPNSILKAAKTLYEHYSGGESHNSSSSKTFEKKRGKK
# Description: as §1, §2, §3
# [4] = molecular target: T3, AURKA (MV4-11^AURKA-HiBiT cells) (Homo sapiens, UniProt O14965); assay: HiBiT assay, AURKA degradation; format: cell-based; design: key to Dmax (maximal degradation) AURKA: compounds with degradation less than 15% reported as “inactive”; conditions: for DC50: read-out: DC50 (half-maximal degradation concentration) AURKA
# T3 construct: expressed in transfected cells; host or cells: MV4-11, lentiviral transduction
# T3 sequence (O14965 1-403): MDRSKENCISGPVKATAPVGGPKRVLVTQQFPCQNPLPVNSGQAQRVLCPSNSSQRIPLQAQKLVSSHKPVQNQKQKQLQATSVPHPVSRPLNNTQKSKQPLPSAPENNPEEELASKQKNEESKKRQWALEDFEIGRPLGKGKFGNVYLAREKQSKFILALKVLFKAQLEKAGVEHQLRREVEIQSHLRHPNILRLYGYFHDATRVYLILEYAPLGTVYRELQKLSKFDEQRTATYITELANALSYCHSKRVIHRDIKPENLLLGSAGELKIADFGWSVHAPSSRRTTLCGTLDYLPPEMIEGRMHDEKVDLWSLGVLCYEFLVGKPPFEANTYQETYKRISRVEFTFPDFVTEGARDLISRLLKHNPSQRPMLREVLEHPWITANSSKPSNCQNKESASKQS
# Description: as §1, §2, §3
# [5] = 72 h treatment, MV4-11 cells (naive), read-out: EC50 (concentration that decreases cell viability by 50%)
# [6] = 6 h treatment, MV4-11^HiBiT-TTK cells
# [7] = 6 h treatment, MV4-11^AURKA-HiBiT cells
# [8] = 72 h, MV4-11 cells, read-out: EC50 cytotoxicity
# T1 sequence (Q96GD4 1-345 isoform Q96GD4-5): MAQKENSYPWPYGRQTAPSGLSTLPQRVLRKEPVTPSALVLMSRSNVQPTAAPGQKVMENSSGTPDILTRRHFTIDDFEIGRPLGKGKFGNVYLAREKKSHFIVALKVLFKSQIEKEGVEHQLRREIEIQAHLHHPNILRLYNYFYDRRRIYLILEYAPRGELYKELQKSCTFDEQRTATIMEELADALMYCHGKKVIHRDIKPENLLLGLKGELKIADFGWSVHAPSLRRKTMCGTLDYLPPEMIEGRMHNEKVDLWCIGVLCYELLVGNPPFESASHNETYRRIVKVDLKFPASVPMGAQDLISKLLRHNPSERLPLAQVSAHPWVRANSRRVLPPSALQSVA
Structure (SMILES),Dmax (maximal degradation) AURKB [1],DC50 [1] [nM],"pEC50 [2, 5]","Dmax (maximal degradation) TTK [3, 6]","DC50 [3, 6]","Dmax (maximal degradation) AURKA [4, 7]","DC50 [4, 7] [nM]","selectivity of AURKA degradation (DC50) relative to TTK ([4]; HiBiT, 6 h) [fold]","pEC50 [2, 8]",Dmax ([1]; read-out: Dmax (maximal degradation) AURKB) [%],"pEC50 ([2]; Homo sapiens, 72 h treatment, MV4-11 cells (naive), read-out: EC50 (concentration that decreases cell viability by 50%))","Dmax ([3]; 6 h treatment, MV4-11^HiBiT-TTK cells, read-out: Dmax (maximal degradation) TTK) [%]","Dmax ([4]; 6 h treatment, MV4-11^AURKA-HiBiT cells, read-out: Dmax (maximal degradation) AURKA) [%]","DC50 (half-maximal degradation concentration) TTK [3, 6]",DC50 (half-maximal degradation concentration) AURKB [1],"EC50 (concentration that decreases cell viability by 50%) ([2]; 72 h treatment, MV4-11 cells (naive))","DC50 (half-maximal degradation concentration) AURKA [4, 7]","fold lower activity (DC50) against TTK in comparison to degrader 19 ([3]; HiBiT, 6 h) [fold]"
CC(C)S(=O)(=O)c1ccccc1Nc1nc(Nc2ccc(N3CCN(C(=O)CCC(=O)Nc4cccc5c4C(=O)N(C4CCC(=O)NC4=O)C5=O)CC3)cc2)nc2[nH]cnc12 (stereo not drawn) [Compound 15],33.15%,154,7.41,35.20%,42 nM,74.55%,2.05,21,,,,,,,,,,
O=C(CCCC(=O)Nc1cccc2c1C(=O)N(C1CCC(=O)NC1=O)C2=O)NCC(=O)N1CCN(c2ccc(Nc3nc(NC4CCCCC4)c4nc[nH]c4n3)cc2)CC1 (stereo not drawn) [Compound 19],43.60%,570,5.86,67% and 66.50%,18 nM and 17.7 nM,78.80%,109,,5.85,,,,,,,,,
COc1cc(N2CCNCC2)ccc1Nc1nc(Nc2ccccc2S(=O)(=O)C(C)C)c2nc[nH]c2n1 [SF2],,4860,,,1750 nM,,1930,,,40.9,5.69,29.6,40.1,,,,,
CC(C)S(=O)(=O)c1ccccc1Nc1nc(Nc2ccc(N3CCN(CCCC(=O)Nc4cccc5c4C(=O)N(C4CCC(=O)NC4=O)C5=O)CC3)cc2)nc2[nH]cnc12 (stereo not drawn) [Compound 27],48.90%,270,7.04,52.95%,89.1 nM,75.10%,4.8,,,,,,,,,,,
Cc1ncsc1-c1ccc(CNC(=O)[C@@H]2C[C@@H](O)CN2C(=O)[C@@H](NC(=O)CCCC(=O)NCC(=O)N2CCN(c3ccc(Nc4nc(Nc5ccccc5S(=O)(=O)C(C)C)c5nc[nH]c5n4)cc3)CC2)C(C)(C)C)cc1 [Compound 46],29.40%,466,5.70,inactive,,57.90%,772,,,,,,,– (compounds with degradation less than 25% were not calculated and reported as “–”),,,,
Cc1ncsc1-c1ccc(CNC(=O)[C@@H]2C[C@@H](O)CN2C(=O)[C@@H](NC(=O)CCCC(=O)N2CCN(c3ccc(Nc4nc(NC5CCCCC5)c5nc[nH]c5n4)cc3)CC2)C(C)(C)C)cc1 [Compound 43],33.80%,2280,6.23,32.70%,1960 nM,55% and 55.60%,684,,,,,,,,,,,
COc1cc(N2CCC(OCC(=O)NCCCNc3cccc4c3C(=O)N(C3CCC(=O)NC3=O)C4=O)CC2)ccc1Nc1nc(Nc2ccccc2S(=O)(=O)C(C)C)c2nc[nH]c2n1 (stereo not drawn) [Compound 35],inactive,,,inactive,,inactive,,,,,,,,– (compounds with degradation less than 25% were not calculated and reported as “–”),– (compounds with degradation less than 25% were not calculated and reported as “–”),— (compounds with decrease of cell viability less than 50% were not calculated and reported as “—”),– (compounds with degradation less than 25% were not calculated and reported as “–”),
CN1C(=O)CCC(N2C(=O)c3cccc(NC(=O)CCCC(=O)NCC(=O)N4CCN(c5ccc(Nc6nc(NC7CCCCC7)c7nc[nH]c7n6)cc5)CC4)c3C2=O)C1=O (stereo not drawn) [Compound 23],48.30%,363,6.16,32.55%,600 nM,55.25%,299,,6.15,,,,,,,,,34
O=C1CCC(N2C(=O)c3cccc(NC(=O)CCCC(=O)N4CCN(c5ccc(Nc6nc(NC7CCCCC7)c7nc[nH]c7n6)cc5)CC4)c3C2=O)C(=O)N1 (stereo not drawn) [Compound 13],30.60%,380,5.92,27.70%,3 nM,68.40%,94,,,,,,,,,,,
Cc1ncsc1-c1ccc(CNC(=O)[C@@H]2C[C@@H](O)CN2C(=O)[C@@H](NC(=O)CCC(=O)NCCNC(=O)CCC(=O)N2CCN(c3ccc(Nc4nc(NC5CCCCC5)c5nc[nH]c5n4)cc3)CC2)C(C)(C)C)cc1 [Compound 55],inactive,,5.16,28.40%,5650 nM,28.30%,9840,,,,,,,,– (compounds with degradation less than 25% were not calculated and reported as “–”),,,
Cc1ncsc1-c1ccc(CNC(=O)[C@@H]2C[C@H](O)CN2C(=O)[C@@H](NC(=O)COCCOCC(=O)N2CCN(c3ccc(Nc4nc(Nc5ccccc5S(=O)(=O)C(C)C)c5nc[nH]c5n4)cc3)CC2)C(C)(C)C)cc1 [Compound 51],44.00%,1160,6.38,73.95%,993 nM,inactive,,,,,,,,,,,– (compounds with degradation less than 25% were not calculated and reported as “–”),
